Experiment: xn = mol fraction of the nth substance listed
Details: 101.3 kPa, Liquid; for speed of sound: Sing-around technique in a fixed-path interferometer

CCOC(C)(C)C [2-ethoxy-2-methylpropane] + CC(C)(C)O
Details	mass density, 303.15 K [kg/m3]	mass density, 313.15 K [kg/m3]	mass density, 323.15 K [kg/m3]	speed of sound, 303.15 K [m/s]	speed of sound, 313.15 K [m/s]	speed of sound, 323.15 K [m/s]
x1 = 0.06	770.981	760.486	749.635	1085.9	1043.4	1001.6
x1 = 0.093	768.859	758.385	747.565	1079.5	1037.4	996.19
x1 = 0.2	762.345	751.936	741.141	1062.9	1021.9	980.83
x1 = 0.298	757.005	746.63	735.846	1050.7	1010.1	969.12
x1 = 0.386	752.738	742.309	731.52	1041.5	1000.3	959.27
x1 = 0.488	748.226	737.777	726.96	1033.5	992.26	950.9
x1 = 0.632	742.556	732.028	721.169	1024.7	982.68	940.83
x1 = 0.685	740.622	730.077	719.198	1022.1	979.93	937.72
x1 = 0.796	736.85	726.255	715.369	1017.9	975.09	932.37
x1 = 0.896	733.592	722.99	712.15	1014.9	971.48	928.25
x1 = 0.949	731.862	721.29	710.507	1013.4	969.31	925.71
x1 = 1	730.186	719.687	708.996	1010.2	965.87	922.08

CCOC(C)(C)C [2-ethoxy-2-methylpropane] + CC(C)CC(C)(C)C
Details	mass density, 288.15 K [kg/m3]	mass density, 298.15 K [kg/m3]	mass density, 323.15 K [kg/m3]	speed of sound, 288.15 K [m/s]	speed of sound, 298.15 K [m/s]	speed of sound, 323.15 K [m/s]
x1 = 0.047	697.781	689.477	668.28	1121.2	1078.7	975.15
x1 = 0.1	699.904	691.5	670.054	1118.3	1075.5	971.5
x1 = 0.204	704.01	695.429	673.45	1111.9	1068.9	964.23
x1 = 0.305	708.284	699.51	677.1	1106.8	1063.8	958.38
x1 = 0.4	712.599	703.649	680.717	1101.7	1058.5	952.41
x1 = 0.508	717.689	708.525	685.059	1096.5	1053.1	946.33
x1 = 0.596	722.093	712.737	688.798	1092.5	1048.3	941.25
x1 = 0.699	727.55	717.974	693.436	1088.3	1043.8	935.64
x1 = 0.788	732.615	722.843	697.73	1084.9	1040.1	931
x1 = 0.902	739.579	729.56	703.808	1081.5	1036.6	927.2
x1 = 0.949	742.53	732.405	706.371	1080.5	1035.4	925.22
x1 = 1	745.656	735.357	709.007	1078.9	1033.2	922.48

CCOC(C)(C)C [2-ethoxy-2-methylpropane] + CCO
Details	mass density, 288.15 K [kg/m3]	mass density, 298.15 K [kg/m3]	mass density, 323.15 K [kg/m3]	speed of sound, 288.15 K [m/s]	speed of sound, 298.15 K [m/s]	speed of sound, 323.15 K [m/s]
x1 = 0.049	790.26	781.555	759.223	1171.4	1135.6	1048.6
x1 = 0.097	786.997	778.154	755.418	1165.8	1128.9	1038.1
x1 = 0.198	780.646	771.547	748.104	1150.9	1112.5	1018.3
x1 = 0.303	774.648	765.324	741.204	1137.4	1097.5	999.82
x1 = 0.395	770.061	760.556	735.962	1127.4	1086.4	986.27
x1 = 0.504	765.017	755.325	730.194	1116.6	1074.6	971.7
x1 = 0.606	760.667	750.815	725.266	1108.4	1065.5	959.88
x1 = 0.691	757.429	747.458	721.666	1101.4	1058	950.98
x1 = 0.802	753.45	743.339	717.148	1094	1049.8	941.56
x1 = 0.895	749.87	739.659	713.326	1087.8	1043	933.37
x1 = 0.935	748.296	738.056	711.669	1084.8	1039.8	929.43
x1 = 1	745.656	735.357	709.007	1078.9	1033.2	922.48
